# Test results published in ChEMBL document CHEMBL5058643, “Data for DCP probe BI-2081” (2022).
# What was measured:
# Details in all cases: Compound concentration 10.0 uM
# [1] = target: 5-hydroxytryptamine receptor 1D (Homo sapiens) (UniProt P28221)
# [2] = target: 5-hydroxytryptamine receptor 2A (Homo sapiens) (UniProt P28223)
# [3] = target: 5-hydroxytryptamine receptor 5A (Homo sapiens) (UniProt P47898)
# [4] = target: 5-hydroxytryptamine receptor 6 (Homo sapiens) (UniProt P50406)
# [5] = target: 5-hydroxytryptamine receptor 7 (Homo sapiens) (UniProt P34969)
# 5-hydroxytryptamine receptor 7 (Homo sapiens), sequence (P34969 whole entry): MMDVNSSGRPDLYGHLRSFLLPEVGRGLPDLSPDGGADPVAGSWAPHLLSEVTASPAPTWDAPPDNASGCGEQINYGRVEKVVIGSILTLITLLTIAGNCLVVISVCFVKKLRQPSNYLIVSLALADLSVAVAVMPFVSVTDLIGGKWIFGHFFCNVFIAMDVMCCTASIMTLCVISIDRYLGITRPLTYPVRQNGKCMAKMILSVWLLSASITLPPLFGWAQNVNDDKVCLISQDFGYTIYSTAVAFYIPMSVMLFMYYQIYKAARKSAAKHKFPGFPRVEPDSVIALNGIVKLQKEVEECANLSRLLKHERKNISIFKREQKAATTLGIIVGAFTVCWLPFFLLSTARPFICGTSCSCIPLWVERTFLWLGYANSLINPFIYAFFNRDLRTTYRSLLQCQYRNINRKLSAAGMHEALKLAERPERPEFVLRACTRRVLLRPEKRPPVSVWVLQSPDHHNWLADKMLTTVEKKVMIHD
# [6] = target: D(1A) dopamine receptor (Homo sapiens) (UniProt P21728)
# D(1A) dopamine receptor (Homo sapiens), sequence (P21728 whole entry): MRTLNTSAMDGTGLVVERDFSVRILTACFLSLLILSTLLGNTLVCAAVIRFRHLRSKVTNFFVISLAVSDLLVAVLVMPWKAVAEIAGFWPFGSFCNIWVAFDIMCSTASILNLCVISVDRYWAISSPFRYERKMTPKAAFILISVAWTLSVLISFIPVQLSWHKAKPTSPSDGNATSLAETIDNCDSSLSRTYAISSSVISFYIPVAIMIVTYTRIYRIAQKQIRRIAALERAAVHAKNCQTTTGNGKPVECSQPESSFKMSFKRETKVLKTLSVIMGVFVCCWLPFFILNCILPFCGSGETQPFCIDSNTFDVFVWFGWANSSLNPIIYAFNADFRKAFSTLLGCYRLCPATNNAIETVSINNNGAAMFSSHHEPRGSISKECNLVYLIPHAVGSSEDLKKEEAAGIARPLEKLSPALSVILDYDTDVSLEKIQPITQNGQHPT
# [7] = target: D(2) dopamine receptor (Homo sapiens) (UniProt P14416)
# D(2) dopamine receptor (Homo sapiens), sequence (P14416 whole entry): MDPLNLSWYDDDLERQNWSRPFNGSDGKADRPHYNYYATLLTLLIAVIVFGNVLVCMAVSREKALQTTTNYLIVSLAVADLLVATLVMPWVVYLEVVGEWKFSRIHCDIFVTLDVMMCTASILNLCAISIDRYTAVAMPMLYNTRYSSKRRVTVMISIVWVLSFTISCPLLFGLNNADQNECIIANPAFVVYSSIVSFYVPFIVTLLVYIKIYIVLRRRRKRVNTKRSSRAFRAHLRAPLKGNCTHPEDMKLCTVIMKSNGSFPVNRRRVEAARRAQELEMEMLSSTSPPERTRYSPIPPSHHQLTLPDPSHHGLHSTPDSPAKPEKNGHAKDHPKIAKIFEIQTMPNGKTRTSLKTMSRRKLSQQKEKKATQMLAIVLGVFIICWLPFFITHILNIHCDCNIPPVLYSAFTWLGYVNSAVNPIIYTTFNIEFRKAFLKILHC
# [8] = target: D(3) dopamine receptor (Homo sapiens) (UniProt P35462)
# [9] = target: Mu-type opioid receptor (Homo sapiens) (UniProt P35372)
# Mu-type opioid receptor (Homo sapiens), sequence (P35372 whole entry): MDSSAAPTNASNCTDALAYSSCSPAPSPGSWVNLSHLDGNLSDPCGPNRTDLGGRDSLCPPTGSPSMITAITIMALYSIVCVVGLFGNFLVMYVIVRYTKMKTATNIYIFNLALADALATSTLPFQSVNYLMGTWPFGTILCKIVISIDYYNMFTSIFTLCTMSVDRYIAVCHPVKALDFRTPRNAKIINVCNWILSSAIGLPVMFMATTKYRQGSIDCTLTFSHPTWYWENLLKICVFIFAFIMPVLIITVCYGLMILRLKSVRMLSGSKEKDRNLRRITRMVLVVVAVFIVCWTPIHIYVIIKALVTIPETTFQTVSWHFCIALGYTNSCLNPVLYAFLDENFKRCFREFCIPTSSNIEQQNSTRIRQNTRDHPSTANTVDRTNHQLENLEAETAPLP
# [10] = target: Histamine H1 receptor (Homo sapiens) (UniProt P35367)
# Histamine H1 receptor (Homo sapiens), sequence (P35367 whole entry): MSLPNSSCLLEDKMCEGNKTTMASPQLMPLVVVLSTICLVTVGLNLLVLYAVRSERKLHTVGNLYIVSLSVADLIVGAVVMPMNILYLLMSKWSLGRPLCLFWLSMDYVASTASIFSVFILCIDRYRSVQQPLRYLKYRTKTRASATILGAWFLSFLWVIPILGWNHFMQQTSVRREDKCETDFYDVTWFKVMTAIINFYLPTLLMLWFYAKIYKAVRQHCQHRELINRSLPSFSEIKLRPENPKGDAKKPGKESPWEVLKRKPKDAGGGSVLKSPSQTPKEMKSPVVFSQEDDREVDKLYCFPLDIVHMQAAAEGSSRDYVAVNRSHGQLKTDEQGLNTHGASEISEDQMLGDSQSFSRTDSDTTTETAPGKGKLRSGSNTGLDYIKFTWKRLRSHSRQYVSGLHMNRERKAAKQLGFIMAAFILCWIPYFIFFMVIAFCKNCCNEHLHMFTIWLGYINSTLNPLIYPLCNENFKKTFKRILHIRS
# [11] = target: Histamine H2 receptor (Homo sapiens) (UniProt P25021)
# Histamine H2 receptor (Homo sapiens), sequence (P25021 whole entry): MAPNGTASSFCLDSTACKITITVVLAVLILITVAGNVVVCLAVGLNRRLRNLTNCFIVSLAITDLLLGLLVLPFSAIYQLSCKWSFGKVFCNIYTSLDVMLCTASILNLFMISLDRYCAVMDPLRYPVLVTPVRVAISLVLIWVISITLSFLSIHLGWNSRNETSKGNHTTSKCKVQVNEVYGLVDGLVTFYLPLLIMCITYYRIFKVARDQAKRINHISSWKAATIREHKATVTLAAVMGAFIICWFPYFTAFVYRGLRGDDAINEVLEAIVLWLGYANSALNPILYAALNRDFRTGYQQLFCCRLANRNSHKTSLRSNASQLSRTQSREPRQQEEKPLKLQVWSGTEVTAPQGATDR
# [12] = target: T1, Alpha-1B adrenergic receptor (Homo sapiens) (UniProt P35368)
# T1 sequence (whole entry): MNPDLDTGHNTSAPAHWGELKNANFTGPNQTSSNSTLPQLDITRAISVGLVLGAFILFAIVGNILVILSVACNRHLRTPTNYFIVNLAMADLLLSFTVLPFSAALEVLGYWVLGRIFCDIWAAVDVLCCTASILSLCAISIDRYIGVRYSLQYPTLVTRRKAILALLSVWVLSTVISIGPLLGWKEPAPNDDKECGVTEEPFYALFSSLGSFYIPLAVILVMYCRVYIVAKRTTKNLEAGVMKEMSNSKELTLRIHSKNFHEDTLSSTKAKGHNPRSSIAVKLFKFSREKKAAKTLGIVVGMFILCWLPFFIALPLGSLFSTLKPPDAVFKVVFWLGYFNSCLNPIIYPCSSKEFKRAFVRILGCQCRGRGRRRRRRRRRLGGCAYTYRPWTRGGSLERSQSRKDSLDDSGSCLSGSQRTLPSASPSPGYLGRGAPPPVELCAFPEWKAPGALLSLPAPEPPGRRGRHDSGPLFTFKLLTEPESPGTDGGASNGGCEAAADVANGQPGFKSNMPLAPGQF
# [13] = target: T2, Alpha-2A adrenergic receptor (Homo sapiens) (UniProt P08913)
# T2 sequence (whole entry): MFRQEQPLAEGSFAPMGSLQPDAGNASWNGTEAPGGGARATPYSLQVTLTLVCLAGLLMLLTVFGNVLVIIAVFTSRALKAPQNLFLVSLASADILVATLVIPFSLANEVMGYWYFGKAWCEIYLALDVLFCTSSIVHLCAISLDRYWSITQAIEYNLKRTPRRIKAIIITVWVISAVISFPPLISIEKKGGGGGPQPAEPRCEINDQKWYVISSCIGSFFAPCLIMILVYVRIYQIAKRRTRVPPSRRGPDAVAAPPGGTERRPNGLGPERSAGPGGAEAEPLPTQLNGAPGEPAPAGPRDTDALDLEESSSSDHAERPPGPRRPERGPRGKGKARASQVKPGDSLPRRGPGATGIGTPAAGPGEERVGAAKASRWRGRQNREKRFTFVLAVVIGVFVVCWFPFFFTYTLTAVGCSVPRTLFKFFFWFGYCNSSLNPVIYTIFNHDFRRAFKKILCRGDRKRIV
# [14] = target: T3, Alpha-2C adrenergic receptor (Homo sapiens) (UniProt P18825)
# T3 sequence (whole entry): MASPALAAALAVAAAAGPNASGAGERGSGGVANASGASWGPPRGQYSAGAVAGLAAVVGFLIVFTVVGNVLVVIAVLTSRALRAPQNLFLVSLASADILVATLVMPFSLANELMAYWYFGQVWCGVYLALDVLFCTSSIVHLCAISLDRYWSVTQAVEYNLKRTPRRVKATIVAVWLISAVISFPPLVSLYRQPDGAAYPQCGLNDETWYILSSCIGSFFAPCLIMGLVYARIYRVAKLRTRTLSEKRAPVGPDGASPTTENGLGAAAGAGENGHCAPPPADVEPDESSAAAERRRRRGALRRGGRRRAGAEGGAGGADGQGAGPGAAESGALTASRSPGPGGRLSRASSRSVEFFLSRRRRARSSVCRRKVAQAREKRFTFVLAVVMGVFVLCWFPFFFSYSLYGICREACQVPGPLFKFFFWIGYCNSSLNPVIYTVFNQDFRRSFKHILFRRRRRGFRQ
# [15] = target: T4, Muscarinic acetylcholine receptor M1 (Homo sapiens) (UniProt P11229)
# T4 sequence (whole entry): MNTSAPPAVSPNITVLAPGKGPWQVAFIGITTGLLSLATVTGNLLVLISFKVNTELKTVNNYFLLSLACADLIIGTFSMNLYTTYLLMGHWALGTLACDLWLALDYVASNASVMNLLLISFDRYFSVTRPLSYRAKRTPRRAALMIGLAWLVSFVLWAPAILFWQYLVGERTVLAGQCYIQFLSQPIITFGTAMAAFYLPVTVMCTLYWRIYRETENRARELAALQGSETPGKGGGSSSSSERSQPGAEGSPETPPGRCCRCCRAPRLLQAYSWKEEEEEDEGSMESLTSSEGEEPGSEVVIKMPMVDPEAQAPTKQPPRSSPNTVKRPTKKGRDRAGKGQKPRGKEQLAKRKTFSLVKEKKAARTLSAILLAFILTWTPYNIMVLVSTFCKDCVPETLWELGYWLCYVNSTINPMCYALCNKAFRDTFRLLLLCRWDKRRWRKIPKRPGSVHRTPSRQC
# [16] = target: Muscarinic acetylcholine receptor M3 (Homo sapiens, UniProt P20309)
# Muscarinic acetylcholine receptor M3, sequence (P20309 whole entry, looked up): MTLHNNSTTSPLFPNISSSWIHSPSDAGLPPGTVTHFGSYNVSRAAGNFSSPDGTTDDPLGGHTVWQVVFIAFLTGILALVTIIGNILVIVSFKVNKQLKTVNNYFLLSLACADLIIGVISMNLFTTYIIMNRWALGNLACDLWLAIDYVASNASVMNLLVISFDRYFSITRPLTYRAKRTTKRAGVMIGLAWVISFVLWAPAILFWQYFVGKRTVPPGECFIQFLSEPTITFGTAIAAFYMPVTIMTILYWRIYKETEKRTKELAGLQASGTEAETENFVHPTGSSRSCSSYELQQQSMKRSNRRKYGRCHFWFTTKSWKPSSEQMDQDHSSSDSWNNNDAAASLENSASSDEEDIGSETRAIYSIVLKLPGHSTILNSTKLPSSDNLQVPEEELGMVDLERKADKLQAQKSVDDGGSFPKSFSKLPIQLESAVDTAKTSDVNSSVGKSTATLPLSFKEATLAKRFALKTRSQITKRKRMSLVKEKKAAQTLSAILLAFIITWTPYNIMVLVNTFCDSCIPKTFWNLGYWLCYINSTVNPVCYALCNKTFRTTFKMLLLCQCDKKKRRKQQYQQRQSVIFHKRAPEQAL
# [17] = target: Muscarinic acetylcholine receptor M5 (Homo sapiens) (UniProt P08912)
# Muscarinic acetylcholine receptor M5 (Homo sapiens), sequence (P08912 whole entry): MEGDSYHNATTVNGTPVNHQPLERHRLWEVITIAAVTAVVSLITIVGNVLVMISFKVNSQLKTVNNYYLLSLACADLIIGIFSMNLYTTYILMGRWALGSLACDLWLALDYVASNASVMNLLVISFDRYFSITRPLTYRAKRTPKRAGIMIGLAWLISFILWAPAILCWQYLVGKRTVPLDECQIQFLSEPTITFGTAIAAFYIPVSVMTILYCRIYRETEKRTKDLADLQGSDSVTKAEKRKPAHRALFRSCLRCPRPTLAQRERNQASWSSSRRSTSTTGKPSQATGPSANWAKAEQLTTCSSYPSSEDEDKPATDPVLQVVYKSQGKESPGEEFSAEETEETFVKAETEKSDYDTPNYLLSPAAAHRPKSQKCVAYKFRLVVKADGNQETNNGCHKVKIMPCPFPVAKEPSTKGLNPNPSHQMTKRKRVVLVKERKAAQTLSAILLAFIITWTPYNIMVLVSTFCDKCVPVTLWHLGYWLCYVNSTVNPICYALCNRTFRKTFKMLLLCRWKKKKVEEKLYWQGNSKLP
# [18] = target: GABA-A receptor; anion channel (Rattus norvegicus) (UniProt O09028+P15431+P18506+P18508+P19969+P20236+P23574+P23576+P28471+P28473+P30191+P62813+P63079+P63138+Q91ZM7+Q9ES14)
# 5-hydroxytryptamine receptor 5A (Homo sapiens), sequence (P47898 whole entry): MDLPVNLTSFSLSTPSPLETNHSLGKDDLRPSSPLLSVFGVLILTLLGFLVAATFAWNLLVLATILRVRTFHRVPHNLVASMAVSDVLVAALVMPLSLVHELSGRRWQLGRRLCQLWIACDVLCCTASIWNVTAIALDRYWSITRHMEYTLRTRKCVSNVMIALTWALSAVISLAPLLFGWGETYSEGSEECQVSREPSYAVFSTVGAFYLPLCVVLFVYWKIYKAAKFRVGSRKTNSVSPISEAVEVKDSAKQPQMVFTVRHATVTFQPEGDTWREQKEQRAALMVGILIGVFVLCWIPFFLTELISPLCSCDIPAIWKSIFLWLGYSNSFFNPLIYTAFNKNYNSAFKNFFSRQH
# 5-hydroxytryptamine receptor 2A (Homo sapiens), sequence (P28223 whole entry): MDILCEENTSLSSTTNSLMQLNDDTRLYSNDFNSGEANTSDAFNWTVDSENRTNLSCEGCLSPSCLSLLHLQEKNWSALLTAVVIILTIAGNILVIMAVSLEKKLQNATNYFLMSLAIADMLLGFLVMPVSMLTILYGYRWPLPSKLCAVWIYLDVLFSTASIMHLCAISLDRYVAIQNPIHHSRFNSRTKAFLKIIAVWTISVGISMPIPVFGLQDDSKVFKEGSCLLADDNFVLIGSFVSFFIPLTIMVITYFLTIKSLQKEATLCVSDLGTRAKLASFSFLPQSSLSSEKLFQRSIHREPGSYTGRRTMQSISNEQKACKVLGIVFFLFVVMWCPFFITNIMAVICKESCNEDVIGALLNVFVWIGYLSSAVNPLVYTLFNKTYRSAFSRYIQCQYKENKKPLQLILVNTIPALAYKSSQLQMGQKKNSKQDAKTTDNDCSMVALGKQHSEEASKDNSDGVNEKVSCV
# 5-hydroxytryptamine receptor 1D (Homo sapiens), sequence (P28221 whole entry): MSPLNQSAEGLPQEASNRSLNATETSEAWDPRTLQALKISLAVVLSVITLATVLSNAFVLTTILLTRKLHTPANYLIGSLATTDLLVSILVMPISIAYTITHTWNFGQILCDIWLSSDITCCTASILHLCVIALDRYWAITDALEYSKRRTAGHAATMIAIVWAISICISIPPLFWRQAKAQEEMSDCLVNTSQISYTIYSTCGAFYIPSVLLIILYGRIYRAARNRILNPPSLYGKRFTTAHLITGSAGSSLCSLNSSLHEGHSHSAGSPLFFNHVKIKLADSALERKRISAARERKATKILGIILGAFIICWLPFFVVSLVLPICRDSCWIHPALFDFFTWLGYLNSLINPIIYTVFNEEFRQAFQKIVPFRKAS
inhibition [1] [%],inhibition [2] [%],inhibition [3] [%],inhibition [4] [%],inhibition [5] [%],inhibition [6] [%],inhibition [7] [%],inhibition [8] [%],inhibition [9] [%],inhibition [10] [%],inhibition [11] [%],inhibition [12] [%],inhibition [13] [%],inhibition [14] [%],inhibition [15] [%],inhibition [16] [%],inhibition [17] [%],inhibition [18] [%],Structure (SMILES)
-3.85,-2.26,9.98,-8.04,3.29,-9.32,8.15,20.4,13.7,-1.92,15,-4.9,5.14,5.58,7.17,-1.57,-1.63,30.7,COCCCS(=O)(=O)c1cc(C)c(-c2ccc(F)c3c2CC[C@H]3Oc2ccc3c(c2)OC[C@H]3CC(=O)O)c(C)c1
6.65,-0.3,5.48,-2.53,13,0.05,3.28,-6.42,15.6,10.3,8.54,-7.32,16.6,14.5,-3.94,68.2,-4.38,66.7,Cc1cc(OCCC(C)(C)O)cc(C)c1-c1ccc(F)c2c1CC[C@H]2Oc1ccc2c(c1)OC[C@H]2CC(=O)O
